Here are results for 32 compounds from patent US11661410B2 (GLOBAL BLOOD THERAPEUTICS, INC., priority 2017, dated 2023).

The target in this assay is G9a (Homo sapiens (Human), UniProt Q96KQ7). Briefly: G9a AlphaLISA enzymatic activity assay. Type of assay: biochemical.
[1] abbreviates: G9a AlphaLISA, negative log of the IC50 value in molar.

Usually pIC50 stands for −log10 of the IC50, conventionally taken in molar units. Higher therefore signals a small IC50.

Each structure is given as a SMILES string. Where a name gives a salt, the structure may show the parent alone. Read-outs that look alike come from different tables or passages of the source.

G9a, sequence (Q96KQ7 whole entry): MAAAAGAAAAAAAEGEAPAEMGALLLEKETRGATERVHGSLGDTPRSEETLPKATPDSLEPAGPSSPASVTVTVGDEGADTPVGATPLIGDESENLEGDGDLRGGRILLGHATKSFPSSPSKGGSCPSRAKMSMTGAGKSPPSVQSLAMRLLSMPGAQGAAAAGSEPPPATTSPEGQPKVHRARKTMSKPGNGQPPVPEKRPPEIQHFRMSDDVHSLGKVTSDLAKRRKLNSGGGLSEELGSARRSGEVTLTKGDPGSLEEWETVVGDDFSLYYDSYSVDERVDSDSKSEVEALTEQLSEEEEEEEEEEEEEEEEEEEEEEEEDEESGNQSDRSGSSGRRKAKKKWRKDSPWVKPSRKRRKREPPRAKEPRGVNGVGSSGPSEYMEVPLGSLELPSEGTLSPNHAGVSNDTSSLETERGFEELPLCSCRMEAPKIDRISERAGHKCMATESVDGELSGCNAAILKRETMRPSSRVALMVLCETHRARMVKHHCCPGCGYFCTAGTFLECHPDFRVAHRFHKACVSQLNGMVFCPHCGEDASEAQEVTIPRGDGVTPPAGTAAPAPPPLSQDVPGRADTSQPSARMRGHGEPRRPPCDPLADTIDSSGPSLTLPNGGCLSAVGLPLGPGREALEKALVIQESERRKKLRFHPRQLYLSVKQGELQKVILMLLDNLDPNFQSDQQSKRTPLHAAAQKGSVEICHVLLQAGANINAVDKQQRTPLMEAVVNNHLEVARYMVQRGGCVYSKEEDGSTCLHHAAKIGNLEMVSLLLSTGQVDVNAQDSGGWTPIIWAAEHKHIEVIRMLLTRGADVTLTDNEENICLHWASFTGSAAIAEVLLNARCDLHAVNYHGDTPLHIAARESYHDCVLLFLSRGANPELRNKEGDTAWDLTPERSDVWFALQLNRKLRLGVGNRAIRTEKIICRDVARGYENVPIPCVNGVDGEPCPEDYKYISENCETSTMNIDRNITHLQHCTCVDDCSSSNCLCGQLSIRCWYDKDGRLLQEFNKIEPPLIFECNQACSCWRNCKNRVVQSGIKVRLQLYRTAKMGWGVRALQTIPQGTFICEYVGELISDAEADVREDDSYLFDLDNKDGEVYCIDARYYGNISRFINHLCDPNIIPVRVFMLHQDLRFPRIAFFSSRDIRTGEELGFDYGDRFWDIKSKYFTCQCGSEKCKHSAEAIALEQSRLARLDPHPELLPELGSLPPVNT

Take `COc1cc2nc3c(c(NC4CCN(c5ccc(F)cc5)CC4)c2cc1OC)CCC3`: under setting [1], the pIC50 was determined as 6.85.

Turning to `COc1cc2nc3c(c(NCC4CC(N(C)C)C4)c2cc1OC)CCC3` (centres unmarked), the pIC50 under setting [1] came to 5.24.

Compound `COc1cc2nc3c(c(N[C@@H]4CCCN(C)C4)c2cc1OC)CCC3` came in with a pIC50 of 5.48.

Turning to `COc1cc2nc3c(c(NC4CCN(c5ccccc5Cl)CC4)c2cc1OC)CCC3`, the negative-log IC50 (pIC50) is reported as 6.72.

Turning to `COc1cc2nc3c(c(NC(C)C)c2cc1OC)CCC3` [Example 1, 6,7-dimethoxy-N-(propan-2-yl)-1H,2H,3H-cyclopenta[b]quinolin-9-amine formate], the negative logarithm of the IC50 (pIC50) under setting [1] was found to be 5.97.

With `CCCOc1cc2nc3c(c(NC)c2cc1OC)CCC3` [Example 2, bis(formic acid)], under setting [1], the pIC50 worked out at 5.

Turning to `CNc1c2c(nc3cc(OCCCOC)c(OC)cc13)CCC2` [Example 3], under setting [1], the pIC50 was 5.53.

The compound `CCOCCOc1cc2nc3c(c(NC)c2cc1OC)CCC3` [Example 4, bis(formic acid)] yielded a pIC50 under setting [1] of 5.57.

Consider `COc1cc2c(NC(C)C)c3c(nc2cc1OCCOCCO)CCC3` [Example 6], for which the pIC50 under setting [1] is recorded as 5.

As to `COc1cc2nc3c(c(NC4CCN(C)CC4)c2cc1OC)CCC3` [Example 9], the pIC50 under setting [1] worked out at 7.31.

For `COc1cc2nc3c(c(NC4CCCNC4)c2cc1OC)CCC3` (centres unmarked) [Example 10], the pIC50 under setting [1] came to 7.66.

In the case of `COc1cc2nc3c(c(NCC4CN(C)C4)c2cc1OC)CCC3` [Example 11], the pIC50 under setting [1] is reported as 7.49.

On to `COc1cc2nc3c(c(NC4CN(C(=O)OC(C)(C)C)C4)c2cc1OC)CCC3` [Example 12], for which the pIC50 under setting [1] was 5.5.

Under setting [1], `COc1cc2nc3c(c(NC4CNC4)c2cc1OC)CCC3` [Example 13] showed a negative logarithm of the IC50 (pIC50) of 7.22.

Turning to `COc1cc2nc3c(c(NC4CCN(c5ccccc5)CC4)c2cc1OC)CCC3` [Example 14], under setting [1], the pIC50 was 5.55.

Take `CCN1CCC(Nc2c3c(nc4cc(OC)c(OC)cc24)CCC3)CC1` [Example 15]: under setting [1], the pIC50 is on record as 7.67.

The compound `COc1cc2nc3c(c(NC4CCN(C5CCOCC5)CC4)c2cc1OC)CCC3` [Example 16, hydrochloride] displayed a pIC50 under setting [1] of 7.27.

The compound `COc1cc2nc3c(c(NC4CC5(C4)CN(C(=O)OC(C)(C)C)C5)c2cc1OC)CCC3` [Example 17] returned a pIC50 under setting [1] of 5.5.

For the compound `COc1cc2nc3c(c(NC4CC5(CNC5)C4)c2cc1OC)CCC3` [Example 19, bis(formic acid)], the pIC50 under setting [1] is reported as 5.

`CC(C)N1CCC(Nc2c3c(nc4cc5c(cc24)OCO5)CCC3)CC1` [Example 20] displayed a pIC50 under setting [1] of 7.53.

For the compound `COc1cc2c(NC(C)C)c3c(nc2cc1OCCCCCO)CCC3` [Example 21], the pIC50 under setting [1] worked out at 5.3.

Take `COc1cc2nc3c(c(NC4CCN(c5ccncc5)CC4)c2cc1OC)CCC3` [Example 22]: the pIC50 under setting [1] amounted to 6.21.

Regarding `COc1cc2nc3c(c(NC4CCN(c5cccnc5)CC4)c2cc1OC)CCC3` [Example 23], under setting [1], the pIC50 was determined as 7.05.

Compound `COc1cc2nc3c(c(NC4CCN(c5ccccn5)CC4)c2cc1OC)CCC3` [Example 24] gave a negative logarithm of the IC50 (pIC50) under setting [1] of 6.11.

As to `COc1cc2nc3c(c(NC4CCN(c5cccc(F)c5)CC4)c2cc1OC)CCC3` [Example 25], the pIC50 under setting [1] was 5.87.

In turn, `COc1cc2nc3c(c(NC4CCN(c5ccccc5F)CC4)c2cc1OC)CCC3` [Example 26] had a pIC50 under setting [1] of 7.53.

Under setting [1], `CCN1CC(Nc2c3c(nc4cc(OC)c(OC)cc24)CCC3)C1` [Example 27] came in with a pIC50 of 8.08.

On to `COc1cc2nc3c(c(N[C@H]4CCCNC4)c2cc1OC)CCC3` [Example 28], for which the pIC50 under setting [1] is 6.66.

`COc1cc2nc3c(c(N[C@@H]4CCCNC4)c2cc1OC)CCC3` [Example 29]: the pIC50 under setting [1] is given as 6.81.

Compound `COc1cc2nc3c(c(N[C@H]4CCCN(C)C4)c2cc1OC)CCC3` [Example 30] displayed a pIC50 under setting [1] of 7.83.

Consider `COc1cc2c(NC(C)C)c3c(nc2cc1OCCCC(C)O)CCC3` (centres unmarked) [Example 31], for which the negative logarithm of the IC50 (pIC50) under setting [1] is listed as 6.23.

Compound `COc1cc2nc3c(c(NC4CCN(C(C)C)CC4)c2cc1OC)CCCCC3` [Example 33] returned a pIC50 under setting [1] of 5.78.
